PubChem BioAssay (NCI)
Values joined by “and” are separate entries in the source; they are usually repeats but may differ in a detail not shown here. Equal entries are not always repeated.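 96-well plates; 48 h exposure; 5 concentrations. Endpoints by linear interpolation between flanking doses. Not reached: highest tested concentration assigned. At the GI50, growth is halved. TGI is the concentration that stops growth completely.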

Key:
Test in all cases: growth of human tumour cells (NCI), 48 h
HL-60(TB) leukemia = tested on: HL-60(TB) leukemia
MALME-3M melanoma = tested on: MALME-3M melanoma
UACC-257 melanoma = tested on: UACC-257 melanoma
IGROV1 ovarian = tested on: IGROV1 ovarian
HCC-2998 colon = tested on: HCC-2998 colon
SF-268 CNS = tested on: SF-268 CNS
SK-MEL-28 melanoma = tested on: SK-MEL-28 melanoma
M14 melanoma = tested on: M14 melanoma
HCT-116 colon = tested on: HCT-116 colon
A498 renal = tested on: A498 renal

SMILES	GI50 (HL-60(TB) leukemia)	TGI (HL-60(TB) leukemia)	GI50 (MALME-3M melanoma)	TGI (MALME-3M melanoma)	GI50 (UACC-257 melanoma)	TGI (UACC-257 melanoma)	GI50 (IGROV1 ovarian)	TGI (IGROV1 ovarian)	GI50 (HCC-2998 colon)	TGI (HCC-2998 colon)	GI50 (SF-268 CNS)	TGI (SF-268 CNS)	GI50 (SK-MEL-28 melanoma)	TGI (SK-MEL-28 melanoma)	GI50 (M14 melanoma)	TGI (M14 melanoma)	GI50 (HCT-116 colon)	TGI (HCT-116 colon)	GI50 (A498 renal)	TGI (A498 renal)
CCCCCCn1c(-c2ccc(C(=O)O/N=C(\N)c3ccc4c(c3)OCO4)cc2)nc(-c2ccccc2)c1-c1ccccc1	1.42 µM	3.49 µM	1.83 µM	4.06 µM	10.5 µM	43.2 µM	0.463 µM	1.93 µM	2.96 µM	10.4 µM	2.11 µM	4.64 µM	4.47 µM	22.7 µM	3.75 µM	22.1 µM	1.59 µM	3.34 µM	1.01 µM	3.86 µM
Cc1cc2c(cc1C)[n+](=O)cc(C(=O)C/C(=N/NC(=S)NN)C(=O)Nc1cccc(C(F)(F)F)c1)n2[O-]		> 100 µM		> 100 µM		> 100 µM		> 100 µM		> 100 µM		> 100 µM		> 100 µM		> 100 µM		> 100 µM		> 100 µM
C=CC12CCN(CC1)C(C(O)c1ccnc3ccc(OC)cc13)C2 (stereo not given)	> 100 µM	> 100 µM	86.6 µM	> 100 µM	74.2 µM	> 100 µM	> 100 µM	> 100 µM	> 100 µM	> 100 µM	> 100 µM	> 100 µM	79.8 µM	> 100 µM	87.1 µM	> 100 µM	> 100 µM	> 100 µM	60.5 µM	> 100 µM
NC(=O)c1cc(I)ccc1NC(=O)/C=C/c1ccccc1	0.13 µM	0.912 µM	2.1 µM	> 100 µM	14.3 µM	53.3 µM	0.917 µM	19.9 µM	1.38 µM	30.9 µM	1.4 µM	23.7 µM	1.17 µM	> 86.8 µM	0.389 µM	> 100 µM	0.475 µM	> 40.3 µM	1.28 µM	13 µM
COc1ccc2c(=O)oc3c(OC)cc(CCN(C)C)c4c(=O)oc1c2c34	10.7 µM and 1.84 µM	26.5 µM and 10.2 µM		28.5 µM	19.7 µM and 3.31 µM	38.7 µM and 10.3 µM	15.9 µM and 3.03 µM	29.6 µM and 11.5 µM		25.2 µM		28.4 µM and 16.6 µM	4.25 µM and 1.01 µM	15.6 µM and 2.2 µM		31.2 µM and 18.2 µM	14.3 µM and 5.27 µM	27.9 µM and 11.9 µM		34.8 µM and 17.6 µM
CCN(CCNS(C)(=O)=O)c1ccc(N)c(C)c1	7.01 µM	25.7 µM	10.2 µM	24.4 µM	13.4 µM	27.1 µM	4.3 µM	13.4 µM	16.8 µM	33.9 µM	11.3 µM	24.2 µM	13.4 µM	27.4 µM	10.9 µM	26.4 µM	2.5 µM	6.2 µM	12.6 µM	55.2 µM
Cc1nc2c(N)ncnc2o1		> 100 µM		> 100 µM		> 100 µM		> 100 µM		> 100 µM		> 100 µM		> 100 µM		> 100 µM		> 100 µM		> 100 µM
Cc1cc(C(=O)CSC(=S)SC(C)(C)C)ccc1Cl		44.1 µM		33.4 µM		34.4 µM		> 100 µM		30.3 µM		33.1 µM		35.6 µM		30.4 µM		42.3 µM		29.8 µM
O=C1c2cccc3cccc(c23)C(=O)N1CCN(CCO)CCO		> 100 µM		46.3 µM		54 µM		> 100 µM		84.9 µM		> 100 µM		> 100 µM		46.8 µM		46.6 µM		41.3 µM
CCOC(=O)Cc1csc(Nc2ccccc2[N+](=O)[O-])n1		> 100 µM		> 100 µM		> 100 µM		> 100 µM		> 100 µM		> 100 µM		> 100 µM		> 100 µM		> 100 µM		> 100 µM
COC(=O)/C=C/c1cc(OC(C)=O)c2c(c1)C(C(=O)OC)C(c1ccc(OC(C)=O)c(OC(C)=O)c1)O2 (stereo not given)	0.0273 µM	0.114 µM	1.08 µM	56.6 µM	13.7 µM	> 77.6 µM	0.589 µM	> 100 µM	0.461 µM	48.4 µM	0.617 µM	> 100 µM	0.905 µM	59.7 µM	0.0411 µM	15.1 µM	0.0499 µM	> 51.4 µM	0.948 µM	5.58 µM
O=[N+]([O-])c1ccccc1N=Nc1c(O)[nH]c2c(Cl)cc(Cl)cc12		> 93 µM		> 95.7 µM		> 100 µM		> 100 µM		> 100 µM		> 100 µM		> 100 µM		> 100 µM		> 100 µM		> 100 µM
CCN(Cc1c(F)cccc1OC)c1ccc(CO)c(Cl)c1	13.2 µM	43.3 µM	14 µM	31.7 µM	0.0523 µM	0.226 µM	< 0.036 µM		7.33 µM	22.3 µM	23.2 µM	> 63.5 µM	14.7 µM	34.3 µM	19.7 µM	47.8 µM	0.0546 µM	> 37.2 µM	0.0325 µM	0.106 µM
Nc1nc(Cl)nc2c1ncn2C1CC(O)C(CO)O1 (stereo not given)		1.02 µM		> 100 µM		40.4 µM		> 100 µM		> 100 µM		> 95.7 µM		> 100 µM	0.186 µM	0.509 µM		> 100 µM		48.2 µM
